# Patent US20260102383A1, “LPAR1 Inhibitors” (AbbVie Inc., priority 2024, published 2026)
# Target: T1, human LPAR1 (Homo sapiens, UniProt Q92633)
# T1 construct: host or cells: TangoEDG2-bla U2OS cells
# Experiment: Arrestin assay (Arrestin Reporter EDG2-bla U2OS), inhibition of LPA-stimulated signal
# Format: cell-based
# Details: TangoEDG2-bla U2OS cells expressing human LPAR1; 0.25 μM LPA; read-out: Arrestin Reporter EDG2-bla U2OS Human Merged IC50
# Protocol: The inhibitory activity of compounds 15, 62, 77, 84 and 169 against LPAR1 was measured using an Arrestin assay in U2OS cells expressing human LPAR1.
# FreeStyle media was warmed in a 37° C. water bath. Cryo-preserved vial(s) of TangoEDG2-bla U2OS cells were rapidly thawed in a 37° C. water bath. The thawed cells were added to FreeStyle media and cells were pelleted at 300×g for 5 minutes. The supernatant was aspirated, and cells were resuspended in FreeStyle media. Cell density was adjusted to 0.25×10^6 cells/mL. Cells (1×10^4 in 40 μL) were added to each well of Greiner 384 well black cell plate(s). Cell plate(s) were placed in a humidified 37° C./5% CO2 incubator for 18-20 hours. Dilutions of test compound were prepared at 6× final concentration; 12-point, 3-fold dilutions using HH Buffer (1×HBSS plus 20 mM HEPES). The 6× test compound was then added to the cell plate(s) at 10 μL/well. The final concentration ranged from 10 μM to 0.00006 μM. Cell plate(s) were incubated in a humidified 37° C./5% CO2 incubator for 1 hour. During the incubation, 6×LPA was prepared at 1.5 μM in 0.1% BSA HH Buffer. After the 1-hour incubation of test compound with cells, the LPA was added to the cell plate(s) at 10 μL/well (final LPA concentration of 0.25 μM). Cell plate(s) were returned to a humidified 37° C./5% CO2 incubator for 3 hours. The Development solution was made up per the LiveBLAzerFRET B/G kit protocol. The Development solution was added to the cell plate(s) at 10 μL/well. Cell plates were incubated in the dark at room temperature for 2 hours. Plate(s) were read on an Envision Plate Reader (Perkin Elmer) to read fluorescence; excitation at 409 nm with emission at 460 nm and 530 nm. Raw Data for analysis is the ratio of emission at 460 nm divided by emission 530 nm. The formula used to determine % Inhibition is as follows (1−(Raw Data−Low Average)/(High Average−Low Average))*100. Percent Inhibition was plotted to determine IC50 value with GraphPad Prism 9.5.0 software using Variable slope 4-parameter curve fit analysis.
# Additional compounds of the present disclosure were synthesized in a manner similar to the compounds described above and understood by a person of ordinary skill in the art. The inhibitory activity of the compounds of the present disclosure against LPAR1 was measured using the above-referenced Arrestin Assay protocol.
# T1 sequence (Q92633 whole entry): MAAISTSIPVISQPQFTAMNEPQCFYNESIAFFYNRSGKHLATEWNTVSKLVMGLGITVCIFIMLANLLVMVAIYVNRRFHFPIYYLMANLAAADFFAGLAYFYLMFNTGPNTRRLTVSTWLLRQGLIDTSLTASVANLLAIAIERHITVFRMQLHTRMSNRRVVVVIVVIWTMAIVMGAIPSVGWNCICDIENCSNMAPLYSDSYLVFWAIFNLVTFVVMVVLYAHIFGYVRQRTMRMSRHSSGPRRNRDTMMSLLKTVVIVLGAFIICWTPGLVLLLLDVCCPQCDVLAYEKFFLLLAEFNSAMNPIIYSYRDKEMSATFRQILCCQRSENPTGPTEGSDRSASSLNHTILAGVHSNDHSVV
row,SMILES,IC50 [nM]
1,COc1ccc([C@H](CN2CCC(C(=O)Nc3ccc(Cl)cc3OC(F)F)(n3nccc3C(C)C)CC2)C(=O)O)cc1 [Compound 28],4.82
2,"COc1ccc([C@@H](CN2CCC(C(=O)Nc3ccc(Cl)cc3OC(F)F)(n3nccc3C(C)C)CC2)C(=O)O)cc1 [Compound 29, (2S)-3-[4-[[4-chloro-2-(difluoromethoxy)phenyl]carbamoyl]-4-(5-isopropylpyrazol-1-yl)-1-piperidyl]-2-(4-methoxyphenyl) propanoic acid]",4.75
3,"CC(C)c1ccnn1C1(C(=O)Nc2ccc(Cl)cc2OC(F)F)CCN(CC2(C(=O)O)CCCCO2)CC1 (stereo not drawn) [Compound 30, 2-[[4-[[4-chloro-2-(difluoromethoxy)phenyl]carbamoyl]-4-(5-isopropylpyrazol-1-yl)-1-piperidyl]methyl] tetrahydropyran-2-carboxylic acid]",12.6
4,"COc1cccc([C@@H](CN2CCC(C(=O)Nc3ccc(Cl)cc3OC(F)F)(n3nccc3C(C)C)CC2)C(=O)O)c1 [Compound 33, (2S)-3-[4-[[4-chloro-2-(difluoromethoxy)phenyl]carbamoyl]-4-(5-isopropylpyrazol-1-yl)-1-piperidyl]-2-(3-methoxyphenyl)propanoic acid]",5.13
5,"CC1(C)CCc2cnn(C3(C(=O)Nc4ccc(Cl)cc4OC(F)F)CCN(CC4(C(=O)O)CCOCC4)CC3)c21 [Compound 35, 4-[[4-[[4-chloro-2-(difluoromethoxy)phenyl]carbamoyl]-4-(6,6-dimethyl-4,5-dihydrocyclopenta[c]pyrazol-1-yl)-1-piperidyl]methyl]tetrahydropyran-4-carboxylic acid]",43.6
6,"CC(C)c1ccnn1C1(C(=O)Nc2ccc(Cl)cc2OC(F)F)CCN(Cc2cccc(C(=O)O)n2)CC1 [Compound 36, 6-[[4-[[4-chloro-2-(difluoromethoxy)phenyl]carbamoyl]-4-(5-isopropylpyrazol-1-yl)-1-piperidyl]methyl]pyridine-2-carboxylic acid]",55.3
7,"CC(C)c1ccnn1C1(C(=O)Nc2ccc(Cl)cc2OC(F)F)CCN(Cc2nc(C(=O)O)cs2)CC1 [Compound 37, 2-[[4-[[4-chloro-2-(difluoromethoxy)phenyl]carbamoyl]-4-(5-isopropylpyrazol-1-yl)-1-piperidyl]methyl]thiazole-4-carboxylic acid]",14.6
8,"CC(C)c1ccnn1C1(C(=O)Nc2ccc(Cl)cc2OC(F)F)CCN(CC2(C(=O)O)CC3(COC3)C2)CC1 [Compound 40, 6-[[4-[[4-chloro-2-(difluoromethoxy)phenyl]carbamoyl]-4-(5-isopropylpyrazol-1-yl)-1-piperidyl]methyl]-2-oxaspiro[3.3]heptane-6-carboxylic acid]",22.5
9,"CC(C)c1ccnn1C1(C(=O)Nc2ccc(Cl)cc2OC(F)F)CCN(C2CC(C(=O)O)C2)CC1 (stereo not drawn) [Compound 46, 3-[4-[[4-chloro-2-(difluoromethoxy)phenyl]carbamoyl]-4-(5-isopropylpyrazol-1-yl)-1-piperidyl] cyclobutanecarboxylic acid]",62.7
10,"CC(C)c1ccnn1C1(C(=O)Nc2ccc(Cl)cc2OC(F)F)CCN(CC2(CC(=O)O)CC2)CC1 [Compound 49, 2-[1-[[4-[[4-chloro-2-(difluoromethoxy)phenyl]carbamoyl]-4-(5-isopropylpyrazol-1-yl)-1-piperidyl]methyl]cyclopropyl]acetic acid]",73.2
11,"COc1ccc(C(C)(CN2CCC(C(=O)Nc3ccc(Cl)cc3OC(F)F)(n3nccc3C(C)C)CC2)C(=O)O)cc1 (stereo not drawn) [Compound 50, 3-[4-[[4-chloro-2-(difluoromethoxy)phenyl]carbamoyl]-4-(5-isopropylpyrazol-1-yl)-1-piperidyl]-2-(4-methoxyphenyl)-2-methyl-propanoic acid]",64.1
12,"CC(C)c1ccnn1C1(C(=O)Nc2ccc(Cl)cc2OC(F)F)CCN(CC2(CC(=O)O)CCOCC2)CC1 [Compound 51, 2-[4-[[4-[[4-chloro-2-(difluoromethoxy)phenyl]carbamoyl]-4-(5-isopropylpyrazol-1-yl)-1-piperidyl]methyl]tetrahydropyran-4-yl]acetic acid]",56.6
13,"CC(C)c1ccnn1C1(C(=O)Nc2ccc(Cl)cc2OC(F)F)CCN(CC(C)(C(=O)O)C2CCOCC2)CC1 (stereo not drawn) [Compound 52, 3-[4-[[4-chloro-2-(difluoromethoxy)phenyl]carbamoyl]-4-(5-isopropylpyrazol-1-yl)-1-piperidyl]-2-methyl-2-tetrahydropyran-4-yl-propanoic acid]",70.5

# Now from value to compound:
row,IC50 [nM],SMILES
1,14.2,"CC(C)c1ccnn1C1(C(=O)Nc2ccc(Cl)cc2OC(F)F)CCN(CC2(C(=O)O)CCC(=O)CC2)CC1 [Compound 27, 1-[[4-[[4-chloro-2-(difluoromethoxy)phenyl]carbamoyl]-4-(5-isopropylpyrazol-1-yl)-1-piperidyl]methyl]-4-oxo-cyclohexanecarboxylic acid]"
2,6.55,"CC(C)c1ccnn1C1(C(=O)Nc2ccc(Cl)cc2OC(F)F)CCN(CC2(C(=O)O)CC3(CCC3)C2)CC1 [Compound 31, 2-[[4-[[4-chloro-2-(difluoromethoxy)phenyl]carbamoyl]-4-(5-isopropylpyrazol-1-yl)-1-piperidyl]methyl]spiro[3.3] heptane-2-carboxylic acid]"
3,33.3,"CC(C)c1ccnn1C1(C(=O)Nc2ccc(Cl)cc2OC(F)F)CCN(CC2(C(=O)O)CCC(O)CC2)CC1 (stereo not drawn) [Compound 34, 1-[[4-[[4-chloro-2-(difluoromethoxy)phenyl]carbamoyl]-4-(5-isopropylpyrazol-1-yl)-1-piperidyl]methyl]-4-hydroxy-cyclohexanecarboxylic acid]"
4,22.8,"CCC(=O)N1CCC(CN2CCC(C(=O)Nc3ccc(Cl)cc3OC(F)F)(n3nccc3C(C)C)CC2)(C(=O)O)CC1 [Compound 41, 4-[[4-[[4-chloro-2-(difluoromethoxy)phenyl]carbamoyl]-4-(5-isopropylpyrazol-1-yl)-1-piperidyl]methyl]-1-propanoyl-piperidine-4-carboxylic acid]"
5,19.1,"CC(C)c1ccnn1C1(C(=O)Nc2ccc(Cl)cc2OC(F)F)CCN(CC2(C(=O)O)CCCCC2)CC1 [Compound 42, 1-[[4-[[4-chloro-2-(difluoromethoxy)phenyl]carbamoyl]-4-(5-isopropylpyrazol-1-yl)-1-piperidyl]methyl]cyclohexanecarboxylic acid]"
6,27.6,"CC(C)c1ccnn1C1(C(=O)Nc2ccc(Cl)cc2OC(F)F)CCN(CC2(C(=O)O)CCN(C(=O)C3CC3)CC2)CC1 [Compound 43, 4-[[4-[[4-chloro-2-(difluoromethoxy)phenyl]carbamoyl]-4-(5-isopropylpyrazol-1-yl)-1-piperidyl]methyl]-1-(cyclopropanecarbonyl) piperidine-4-carboxylic acid]"
7,30.5,"CC(C)c1ccnn1C1(C(=O)Nc2ccc(Cl)cc2OC(F)F)CCN(CC2(C(=O)O)CCN(C(=O)C3CCC3)CC2)CC1 [Compound 44, 4-[[4-[[4-chloro-2-(difluoromethoxy)phenyl]carbamoyl]-4-(5-isopropylpyrazol-1-yl)-1-piperidyl]methyl]-1-(cyclobutanecarbonyl) piperidine-4-carboxylic acid]"
8,17.6,"CC(C)c1ccnn1C1(C(=O)Nc2ccc(Cl)cc2OC(F)F)CCN(CC2(C(=O)O)CCC2)CC1 [Compound 45, 1-[[4-[[4-chloro-2-(difluoromethoxy)phenyl]carbamoyl]-4-(5-isopropylpyrazol-1-yl)-1-piperidyl]methyl]cyclobutanecarboxylic acid]"
9,14.8,"CC(C)c1ccnn1C1(C(=O)Nc2ccc(Cl)cc2OC(F)F)CCN(CC2(C(=O)O)CCN(C(=O)CC3CCCC3)CC2)CC1 [Compound 47, 4-[[4-[[4-chloro-2-(difluoromethoxy)phenyl]carbamoyl]-4(5-isopropylpyrazol-1-yl)-1-piperidyl]methyl]-1-(2-cyclopentylacetyl) piperidine-4-carboxylic acid]"
10,44,CC(C)c1ccnn1C1(C(=O)Nc2ccc(Cl)cc2OC(F)F)CCN(CC2(C(=O)O)CCN(C(=O)CC3CC3)CC2)CC1 [Compound 48]
11,13.5,"CC(C)c1ccnn1C1(C(=O)Nc2ccc(Cl)cc2OC(F)F)CCN(CC2(C(=O)O)CCN(C(=O)CC34CC(C3)C4)CC2)CC1 [Compound 53, 1-[2-(1-bicyclo[1.1.1]pentanyl)acetyl]-4-[[4-[[4-chloro-2-(difluoromethoxy)phenyl]carbamoyl]-4-(5-isopropylpyrazol-1-yl)-1-piperidyl]methyl]piperidine-4-carboxylic acid]"
